Measured values from patent US12264173B2 (GILEAD SCIENCES, INC., priority 2020, dated 2025).
Read-outs that look alike come from different tables or passages of the source.

Columns and labels:
Format in all cases: cell-based
RSV strain A2 = test: microbe, parasite or virus in culture; settings: read-out: RSV HEp-2 EC50
Method: Antiviral activity against RSV is determined using an infectious cytopathic cell protection assay in HEp-2 cells. In this assay, compounds inhibiting viral infection and/or replication produce a cytoprotective effect against the virus-induced cell killing that can be quantified using a cell viability reagent. The techniques used here are novel adaptations of methods described in published literature (Chapman et al., Antimicrob Agents Chemother. 2007, 51(9):3346-53.).
HEp-2 cells are obtained from ATCC (Manassas, VI) and maintained in MEM media supplemented with 10% fetal bovine serum and penicillin/streptomycin. Cells are passaged twice a week and kept at subconfluent stage. Commercial stock of RSV strain A2 (Advanced Biotechnologies, Columbia, MD) is titered before compound testing to determine the appropriate dilution of the virus stock that generates desirable cytopathic effect in HEp-2 cells.
For antiviral tests, HEp-2 cells are grown in large cell culture flasks to near confluency but not fully so. The compounds to be tested are prediluted in DMSO in 384-well compound dilution plates, either in an 8 or 40 sample per plate standardized dose response format. 3-fold serial dilution increments of each test compound are prepared in the plates and test samples are transferred via acoustic transfer apparatus (Echo, Labcyte) at 100 nL per well into cell culture assay 384-well plates. Each compound dilution is transferred in single or quadruplicate samples into dry assay plates, which are stored until assay is ready to go. The positive and negative controls are laid out in opposite on ends of the plate in vertical blocks (1 column).
Subsequently, an infectious mixture is prepared using an appropriate dilution of virus stock previously determined by titration with cells at a density of 50,000/mL and 20 µL/well is added to test plates w/compounds via automation (uFlow, Biotek). Each plate includes negative and positive controls (16 replicates each) to create 0% and 100% virus inhibition standards, respectively. Following the infection with RSV, testing plates are incubated for 4 days in a 37° C. cell culture incubator. After the incubation, a cell viability reagent, Cell TiterGlo (Promega, Madison, WI) is added to the assay plates, which are incubated briefly, and a luminescent readout is measured (Envision, Perkin Elmer) in all the assay plates. The RSV-induced cytopathic effect, percentage inhibition, is determined from the levels of remaining cell viability. […] Various potent anti-RSV tool compounds are used as positive controls for antiviral activity.

RSV A2 = test: RSV NHBE EC50 (RSV A2 antiviral assay in NHBE cells); settings: read-out: RSV NHBE EC50
Method: Normal human bronchial epithelial (NHBE) cells were purchased from Lonza (Walkersville, MD, Cat #CC-2540) and cultured in Bronchial Epithelial Growth Media (BEGM) (Lonza, Walkersville, MD, Cat #CC-3170). The cells were passaged 1-2 times per week to maintain <80% confluency. The NHBE cells were discarded after 6 passages in culture.
To conduct the RSV A2 antiviral assay, NHBE cells were plated in 96-well plates at a density of 7,500 cells per well in BEGM and allowed to attach overnight at 37° C. Following attachment, 100 μL of cell culture media was removed and 3-fold serially diluted compound was added using a Hewlett-Packard D300 Digital Dispenser. The final concentration of DMSO was normalized to 0.05%. Following compound addition, the NHBE cells were infected by the addition of 100 μL of RSV A2 at a titer of 1×10^4.5 tissue culture infectious doses/mL in BEGM and then incubated at 37° C. for 4 days. The NHBE cells were then allowed to equilibrate to 25° C. and cell viability was determined by removing 100 μL of culture medium and adding 100 μL of Cell-Titer Glo viability reagent. The mixtures were incubated for 10 minutes at 25° C., and the luminescence signal was quantified on an Envision luminescence plate reader.

HRV16 = HRV16 HeLa EC50 (cytopathic effect in H1-HeLa cells); settings: read-out: HRV16 HeLa EC50
Method: H1-HeLa cells, cultured in complete DMEM medium containing 10% heat-inactivated FBS and 1% Penicillin/Streptomycin, were seeded in 96 well plates at 3000 cells/well one day prior to compound dosing and infection. The antiviral activity of each compound was measured in triplicate. Compounds were added directly to the cell cultures in serial 3-fold dilutions using the HP300 digital dispenser (Hewlett Packard, Palo Alto, CA) immediately prior to infection. The plates were transferred to BSL-2 containment and the appropriate dilution of virus stock, previously determined by titration and prepared in cell culture media, was added to test plates containing cells and serially diluted compounds. Each plate included 6 wells of infected untreated cells and 6 wells of uninfected cells that served as 0% and 100% virus inhibition control, respectively. Following the infection, test plates were incubated for 96 h in a tissue culture incubator set to 33° C./5% CO2. Following incubation, the H1-HeLa cells were removed from incubation and allowed to equilibrate to 25° C. Cell viability was determined by removing 100 μL of culture medium and adding 100 μL of Cell-Titer Glo viability reagent. The mixtures were incubated on a shaker for 10 minutes at 25° C., and the luminescence signal was quantified on an Envision luminescence plate reader.

[1] = human respiratory syncytial virus, HEp-2, 96 h, Table 3, HEp-2 cells, RSV A2, 4 days
[2] = human respiratory syncytial virus, NHBE, 96 h, Table 3, NHBE cells, RSV A2, 4 days
[3] = 96 h, Table 3, H1-HeLa cells, 96 h

CC(C)C(=O)O[C@H]1[C@H](c2ccc3c(N)ncnn23)O[C@](C#N)(COP(=O)(N[C@@H](C)C(=O)OCCCN2CCOCC2)Oc2ccccc2)[C@H]1OC(=O)C(C)C (stereo partly drawn) [Example 237, (2R,3S,4S,5S)-5-(4-aminopyrrolo[2,1-f][1,2,4]triazin-7-yl)-2-cyano-2-((((((S)-1-(3-morpholinopropoxy)-1-oxopropan-2-yl)amino)(phenoxy)phosphoryl)oxy)methyl) tetrahydrofuran-3,4-diyl bis(2-methylpropanoate)] showed an EC50 (RSV strain A2; [1]) of 0.106 µM, an EC50 (RSV A2; [2]) of 0.043 µM and an EC50 (HRV16; [3]) of 0.478 µM.

For CC(C)C(=O)O[C@H]1[C@H](c2ccc3c(N)ncnn23)O[C@](C#N)(COP(=O)(N[C@@H](C)C(=O)OCc2ccccc2)Oc2ccccc2)[C@H]1OC(=O)C(C)C (stereo partly drawn) [Example 236, (2R,3S,4S,5S)-5-(4-aminopyrrolo[2,1-f][1,2,4]triazin-7-yl)-2-((((((S)-1-(benzyloxy)-1-oxopropan-2-yl)amino)(phenoxy)phosphoryl)oxy)methyl)-2-cyanotetrahydrofuran-3,4-diyl bis(2-methylpropanoate)], the EC50 (RSV strain A2; [1]) was 0.049 µM, the EC50 (RSV A2; [2]) was 0.024 µM and the EC50 (HRV16; [3]) was 0.136 µM.

Work on COC(=O)[C@H](C)NP(=O)(OC[C@@]1(C#N)O[C@@H](c2ccc3c(N)ncnn23)[C@H](OC(=O)C(C)C)[C@@H]1OC(=O)C(C)C)Oc1ccc(C[C@H](N)C(=O)OC)cc1 (stereo partly drawn) [Example 235, (2R,3S,4S,5S)-2-((((4-((S)-2-amino-3-methoxy-3-oxopropyl)phenoxy)(((S)-1-methoxy-1-oxopropan-2-yl)amino)phosphoryl)oxy)methyl)-5-(4-aminopyrrolo[2,1-f][1,2,4]triazin-7-yl)-2-cyanotetrahydrofuran-3,4-diyl bis(2-methylpropanoate)] yielded an EC50 (RSV strain A2; [1]) of 0.742 µM, an EC50 (RSV A2; [2]) of 0.113 µM and an EC50 (HRV16; [3]) of 2.27 µM.

In the case of CC(C)C(=O)O[C@H]1[C@H](c2ccc3c(N)ncnn23)O[C@](C#N)(COP(=O)(N[C@@H](C)C(=O)O[C@@H]2CCN(C)C2)Oc2ccccc2)[C@H]1OC(=O)C(C)C (stereo partly drawn) [Example 232, (2R,3S,4S,5S)-5-(4-aminopyrrolo[2,1-f][1,2,4]triazin-7-yl)-2-cyano-2-((((((S)-1-(((R)-1-methylpyrrolidin-3-yl)oxy)-1-oxopropan-2-yl)amino)(phenoxy)phosphoryl)oxy)methyl)tetrahydrofuran-3,4-diyl bis(2-methylpropanoate)], the EC50 (RSV strain A2; [1]) is reported as 0.095 µM, the EC50 (RSV A2; [2]) is reported as 0.053 µM and the EC50 (HRV16; [3]) is reported as 0.88 µM.

With CC(C)[C@H](N)C(=O)O[C@H]1[C@H](c2ccc3c(N)ncnn23)O[C@](C#N)(COP(=O)(N[C@@H](C)C(=O)OC2CCOCC2)Oc2ccccc2)[C@H]1OC(=O)[C@@H](N)C(C)C (stereo partly drawn) [Example 221, (2R,3S,4S,5S)-5-(4-aminopyrrolo[2,1-f][1,2,4]triazin-7-yl)-2-cyano-2-((((((S)-1-oxo-1-((tetrahydro-2H-pyran-4-yl)oxy)propan-2-yl)amino)(phenoxy)phosphoryl)oxy)methyl)tetrahydrofuran-3,4-diyl (2S,2'S)-bis(2-amino-3-methylbutanoate)] the EC50 (RSV strain A2; Table 3, HEp-2 cells, RSV A2, 4 days) was 0.66 µM, the EC50 (RSV A2; Table 3, NHBE cells, RSV A2, 4 days) was 1.17 µM and the EC50 (HRV16; Table 3, H1-HeLa cells, 96 h) was 8.99 µM.

With CC(C)C(=O)O[C@H]1[C@H](c2ccc3c(N)ncnn23)O[C@](C#N)(COP(=O)(N[C@@H](C)C(=O)OCCN(C(C)C)C(C)C)Oc2ccccc2)[C@H]1OC(=O)C(C)C (stereo partly drawn) [Example 224, (2R,3S,4S,5S)-5-(4-aminopyrrolo[2,1-f][1,2,4]triazin-7-yl)-2-cyano-2-((((((S)-1-(2-(diisopropylamino)ethoxy)-1-oxopropan-2-yl)amino)(phenoxy)phosphoryl)oxy)methyl)tetrahydrofuran-3,4-diyl bis(2-methylpropanoate)] the EC50 (RSV strain A2; [1]) was 0.378 µM, the EC50 (RSV A2; [2]) was 0.986 µM and the EC50 (HRV16; [3]) was 1.7 µM.

Work on CC(C)C(=O)O[C@H]1[C@H](c2ccc3c(N)ncnn23)O[C@](C#N)(COP(=O)(N[C@@H](C)C(=O)O[C@H]2CCOC2)Oc2ccccc2)[C@H]1OC(=O)C(C)C (single isomer, unassigned) [Example 240] yielded an EC50 (RSV strain A2; [1]) of 0.02 µM, an EC50 (RSV A2; [2]) of 0.024 µM and an EC50 (HRV16; [3]) of 0.125 µM.

In the case of CCC(CC)COC(=O)[C@H](C)NP(=O)(O)OC[C@@]1(C#N)O[C@@H](c2ccc3c(N)ncnn23)[C@H](OC(=O)C(C)C)[C@@H]1OC(=O)C(C)C [Example 239, ((2R,3S,4S,5S)-5-(4-aminopyrrolo[2,1-f][1,2,4]triazin-7-yl)-2-cyano-3,4-bis(isobutyryloxy)tetrahydrofuran-2-yl)methyl ((S)-1-(2-ethylbutoxy)-1-oxopropan-2-yl)phosphoramidate], the EC50 (RSV strain A2; [1]) is reported as over 9.83 µM, the EC50 (RSV A2; [2]) is reported as 2.26 µM and the EC50 (HRV16; [3]) is reported as over 50 µM.

Work on C[C@H](NP(=O)(OC[C@@]1(C#N)O[C@@H](c2ccc3c(N)ncnn23)[C@H](O)[C@@H]1O)Oc1ccccc1)C(=O)OC1COC1 (stereo partly drawn) [Example 44, oxetan-3-yl ((((2R,3S,4R,5S)-5-(4-aminopyrrolo[2,1-f][1,2,4]triazin-7-yl)-2-cyano-3,4-dihydroxytetrahydrofuran-2-yl)methoxy)(phenoxy)phosphoryl)-L-alaninate] yielded an EC50 (RSV strain A2; human respiratory syncytial virus, HEp-2, Table 5 comparative activity, 2',3'-OH vs -OC(O)iPr) of 0.997 µM, an EC50 (RSV A2; human respiratory syncytial virus, NHBE, Table 5 comparative activity, 2',3'-OH vs -OC(O)iPr) of 1.8 µM and an EC50 (HRV16; HeLa, Table 5 comparative activity, 2',3'-OH vs -OC(O)iPr) of 4.26 µM.

In the case of COCCC(=O)O[C@H]1[C@H](c2ccc3c(N)ncnn23)O[C@](C#N)(CO[P@@](=O)(N[C@@H](C)C(=O)OC)Oc2ccccc2)[C@H]1OC(=O)CCOC [Example 231, (2R,3S,4S,5S)-5-(4-aminopyrrolo[2,1-f][1,2,4]triazin-7-yl)-2-cyano-2-((((S)-(((S)-1-methoxy-1-oxopropan-2-yl)amino)(phenoxy)phosphoryl)oxy)methyl) tetrahydrofuran-3,4-diyl bis(3-methoxypropanoate)], the EC50 (RSV strain A2; [1]) is reported as 0.124 µM, the EC50 (RSV A2; [2]) is reported as 0.075 µM and the EC50 (HRV16; [3]) is reported as 1.73 µM.

For CC(C)C(=O)O[C@H]1[C@H](c2ccc3c(N)ncnn23)O[C@](C#N)(COP(=O)(N[C@@H](C)C(=O)OCCN2CCOCC2)Oc2ccccc2)[C@H]1OC(=O)C(C)C (stereo partly drawn) [Example 223, (2R,3S,4S,5S)-5-(4-aminopyrrolo[2,1-f][1,2,4]triazin-7-yl)-2-cyano-2-((((((S)-1-(2-morpholinoethoxy)-1-oxopropan-2-yl)amino)(phenoxy)phosphoryl)oxy)methyl) tetrahydrofuran-3,4-diyl bis(2-methylpropanoate)], the EC50 (RSV strain A2; [1]) was 1.72 µM and the EC50 (RSV A2; [2]) was 0.223 µM.
